Read-outs that look alike come from different tables or passages of the source. One block for each molecule: values may come before it.
System: clinical strains of HIV-1
Test: AZT and ddI sensitivity of clinical strains of HIV-1 (Table 3)
Format: cell-based
Procedure: To determine the preclinical range of anti-HIV activity of various oligonucleotides of the invention (see TABLE 2), evaluations were performed with Oligo 12 (having SEQ ID NO:1), Oligo 32 (SEQ ID NO:3) and Oligo 41 (SEQ ID NO:6). These evaluations were performed to determine the activity of these compounds against a variety of wild type and drug resistant strains of HIV 1, including both laboratory derived and low passage, clinical strains of virus and T lymphocyte tropic and monocyte macrophage tropic viruses such as those listed below in TABLE 3.

Structure (SMILES): O=c1[nH]cnc2c1ncn2[C@H]1CC[C@@H](CO)O1 [ddi, dideoxyinosine]
IC50 (isolate BAKI, tropism L, read-out: ddi IC50): 2610 nM | IC50 (isolate ROJO, tropism L, read-out: ddi IC50): 870 nM | IC50 (isolate ROMA, tropism M, read-out: ddi IC50): 160 nM | IC50 (isolate SLKA, tropism M, read-out: ddi IC50): 320 nM | IC50 (isolate STDA, tropism L, read-out: ddi IC50): 230 nM | IC50 (isolate TEKI, tropism L, read-out: ddi IC50): 370 nM | IC50 (isolate TEKI, tropism M, read-out: ddi IC50): 1700 nM | IC50 (isolate VIHU, tropism L, read-out: ddi IC50): 1210 nM | IC50 (isolate WEJO, tropism L, read-out: ddi IC50): 2180 nM | IC50 (isolate WOME, tropism L, read-out: ddi IC50): 410 nM

IC50 (Human immunodeficiency virus 1, isolate BAKI, tropism L, read-out: AZT IC50): 49 nM | IC50 (Human immunodeficiency virus 1, isolate BLCH, tropism L, read-out: AZT IC50): 10 nM | IC50 (Human immunodeficiency virus 1, isolate DEJO, tropism L, read-out: AZT IC50): 15 nM | IC50 (Human immunodeficiency virus 1, isolate RIARL, tropism L, read-out: AZT IC50): 10 nM | IC50 (Human immunodeficiency virus 1, isolate ROJO, tropism L, read-out: AZT IC50): 16 nM | IC50 (Human immunodeficiency virus 1, isolate ROMA, tropism M, read-out: AZT IC50): 16 nM | IC50 (Human immunodeficiency virus 1, isolate SLKA, tropism M, read-out: AZT IC50): 25 nM | IC50 (Human immunodeficiency virus 1, isolate STDA, tropism L, read-out: AZT IC50): 17 nM | IC50 (Human immunodeficiency virus 1, isolate TEKI, tropism L, read-out: AZT IC50): 29 nM | IC50 (Human immunodeficiency virus 1, isolate TEKI, tropism M, read-out: AZT IC50): 16 nM | IC50 (Human immunodeficiency virus 1, isolate VIHU, tropism L, read-out: AZT IC50): 16 nM | IC50 (Human immunodeficiency virus 1, isolate WEJO, tropism L, read-out: AZT IC50): 56 nM | IC50 (Human immunodeficiency virus 1, isolate WOME, tropism L, read-out: AZT IC50): 16 nM
Structure (SMILES): Cc1cn([C@H]2C[C@H](N=[N+]=[N-])[C@@H](CO)O2)c(=O)[nH]c1=O [AZT, 3′-azido-3′-deoxythymidine]
